Assay results from patent US20260144807A1, “METHOD OF ADMINISTRATION OF A PARENTERAL FORMULATION COMPRISING A P[…]” (Cybin UK LTD, priority 2022, published 2026).

Key:
healthy participants = assay: Perceived duration of the psychedelic experience; assay type: in vivo, human; conditions: 9 mg IV
From the text: The onset and cessation of the psychedelic experience may be assessed by the attending clinician, psychiatrist or therapist. ‘Duration of the psychedelic experience’ as used herein refers to the time from the start of the continuous parenteral administration to the cessation of the psychedelic experience. The duration of the psychedelic experience may vary between patients. The term ‘duration’ as used herein, encompasses the mean duration of the psychedelic experience.
The safety and tolerability of a single intravenous dose of a deuterated analogue of DMT is being investigated in healthy participants in an on-going clinical trial. The administration of the deuterated analogue of DMT is in accordance with the present invention. Tolerability is assessed post-psychedelic experience by the question ‘Do you wish you had not gone through that experience?’.
A 9 mg dose of the deuterated analogue was administered in accordance with the present invention to a cohort of 6 psychedelic-experienced healthy participants. Preliminary data were compared with pharmacokinetic data from Part A of NCT04673383, Cohort 1 (9 mg DMT fumarate).
IRVAS is a rating scale which measures the intensity of the psychedelic experience. Additionally, the perceived duration of the psychedelic experience was in the range 37-57 minutes for the deuterated analogue, compared with approximately 25 minutes for DMT.

[1] = test system: healthy volunteer participants; conditions: all three healthy volunteers, 0.3 mg/kg, IV bolus; cited from earlier work
[2] = test system: patients with major depressive disorder; assay: D'Souza et al. HAMD-17 scores; assay type: in vivo, human; conditions: 1 day after final administration of 0.1 and 0.3 mg/kg doses
Experimental: D'Souza et al report an ‘exploratory study of the dose-related safety, tolerability, and efficacy of dimethyltryptamine (DMT) in healthy volunteers and major depressive disorder’ (D. C. D'Souza, S. A. Syed, L. T. Flynn, H. Safi-Aghdam, N. V. Cozzi and M. Ranganathan, Neuropsychopharmacology (2022) 47:1854-1862). Seven patients with major depressive disorder received two doses of DMT hemifumarate (0.1 mg/kg, followed by 0.3 mg/kg) at least 48 hours apart. The participants were administered DMT by intravenous push over 30-60 seconds, i.e., a bolus injection.
D'Souza et al report that the mean change in HAMD-17 scores between baseline (7 subjects) and 1 day after final administration of both a 0.1 mg/kg and a 0.3 mg/kg dose (6 subjects) was −4.5 (Table S6). This improvement approximates to an improvement on the MADRS scale of −3.9.

[3] = test system: patients with major depressive disorder; conditions: baseline (7 subjects) vs 1 day after final administration of 0.1 mg/kg and 0.3 mg/kg doses (6 subjects); cited from earlier work
[4] = test system: 3 healthy volunteers and 6 patients; conditions: 0.3 mg/kg, IV bolus; cited from earlier work
[5] = test system: patients with major depressive disorder; assay: Warwick-Edinburgh Mental Wellbeing Scale (WEMWBS), NCT04673383 Part B; assay type: in vivo, human
Experimental: (§1) A double-blind, randomised, placebo-controlled study of intravenous doses of DMT fumarate, was carried out in patients with major depressive disorder, MDD, (ClinicalTrials.gov Identifier: NCT04673383, Part B). The protocol comprised the steps of:
(§2) • Administration of either a placebo or a dose of DMT fumarate by continuous intravenous infusion over a dosing period of about 10 minutes. • Tolerability assessment following cessation of the psychedelic experience. Study Day 8 (±1 day), Study Day 15 (±1 day) • MADRS assessment […]
(§3) The administration of the study drug, DMT fumarate, in NCT04673383, Part B was in accordance with the present invention. Group A received one dose of active (DMT fumarate) on Day 1 and were assessed using MADRS at Day 8 and Day 15. Group P received a placebo on Day 1, and were also assessed at Day 8 and Day 15. […] Group P subsequently received one dose of active in the open label phase of the study on Day 15 and were assessed at Day 22 and 29. […]
Further, a rapid and sustained improvement in wellbeing was observed following administration of at least one dose of DMT fumarate in accordance with the invention, with supportive therapy, as measured by the Warwick-Edinburgh Mental Wellbeing Scale (“WEMWBS”).

healthy adults [6] = assay: Tolerability question after psychedelic experience, NCT04673383 Part A; assay type: in vivo, human; conditions: all healthy volunteers, highest doses tested
From the text: Tolerability may be assessed following cessation of the subjective psychedelic experience by asking the patent the question ‘Do you wish you had not gone through that experience?’ Yes responses are deemed to indicate poor tolerability, while No responses are deemed to indicate good tolerability.
All patient participants in this study, after receiving one dose of DMT fumarate, answered NO to the question ‘Do you wish you had not gone through that experience?’, indicating good tolerability of the psychedelic agent. In Part A of the same study, healthy adults received single escalating doses of DMT fumarate. All healthy volunteers answered “no” to the same question at the highest doses tested.

[7] = test system: patients with major depressive disorder; assay: MADRS assessment, NCT04673383 Part B, IV infusion over about 10 minutes; assay type: in vivo, human; design: average percent reduction from baseline (MADRS) / Mean % reduction (MADRS): concentration or dose not given beside the values
From the text: Therapeutic benefit or efficacy may be assessed using a rating scale. For patients with a depressive disorder such as MDD or TRD, the Montgomery-Asberg Depression Rating Scale (MADRS), the Hamilton Depression Rating Scale (HAMD-17) or the Beck's Depression Inventory (BDI-II) may be used. The rating scale is used prior to administration of the psychedelic agent, to provide a baseline assessment, and again after administration of the psychedelic agent.
as §1
• MADRS assessment by an independent assessor
(§4) • Administration of either a placebo or a dose of DMT fumarate by continuous intravenous infusion over a dosing period of about 10 minutes. • Tolerability assessment following cessation of the psychedelic experience. Study Day 8 (±1 day), Study Day 15 (±1 day) • MADRS assessment
• Administration of a dose of DMT fumarate by continuous intravenous infusion over a dosing period of about 10 minutes. • Tolerability assessment following cessation of the psychedelic experience. Study Day 22 (+1 day), Study Day 29 (+2 days), Day 45 (+2 days), Day 105 (+2 days) • MADRS assessment
The administration of the study drug, DMT fumarate, in NCT04673383, Part B was in accordance with the present invention. Group A received one dose of active (DMT fumarate) on Day 1 and were assessed using MADRS at Day 8 and Day 15. Group P received a placebo on Day 1, and were also assessed at Day 8 and Day 15. This comprised the blinded phase of the study. Group P subsequently received one dose of active in the open label phase of the study on Day 15 and were assessed at Day 22 and 29. Data from this group following administration of the active dose is represented as PA.
As described above, Group A received one dose of active (DMT fumarate) on Day 1 and were assessed at Day 8 and Day 15. Group P received a placebo on Day 1, and were also assessed at Day 8 and Day 15.

[8] = Drug related serious adverse events, NCT04673383; assay type: in vivo, human; conditions: reported at the date of filing
Experimental: A double-blind, randomised, placebo-controlled study of intravenous doses of DMT fumarate, was carried out in patients with major depressive disorder, MDD, (ClinicalTrials.gov Identifier: NCT04673383, Part B).

healthy adults [9] = assay: Challenging Experience Questionnaire (CEQ), NCT04673383 Part A; assay type: in vivo, human; conditions: active group, healthy participants
From the text: Garcia-Romeu and Richards (International review of Psychiatry, Vol. 30, 2018, issue 4, pp 291-316) discuss the use of serotonergic hallucinogens in clinical interventions and state ‘issues, such as recent suicidality, drug or alcohol use disorders, dissociative disorders, and past history of trauma should be taken into account depending on the therapeutic target, as these may be exacerbated by high-dose psychedelic administration or increase risk for adverse events. ‘They further state: Psychodynamic-autobiographical experiences are predominated by emotional recollections and reflections on significant previous or current life events and relationships. […] A patient's subjective experience may be evaluated by the Challenging Experience Questionnaire (CEQ), a questionnaire designed to measure challenging psychological experiences associated with a psychedelic experience. […]
The participant's experience was evaluated using the Challenging Experience Questionnaire (CEQ). In Part A of the study, a mean CEQ score of 0.172 was recorded for the active group, compared with a mean of 0.052 for the placebo group. […]

[10] = test system: patients with major depressive disorder; assay: State-Trait Anxiety Inventory-Trait (STAI-T), NCT04673383 Part B; assay type: in vivo, human
Experimental: as §1, §4
• Administration of a dose of DMT fumarate by continuous intravenous infusion over a dosing period of about 10 minutes. • Tolerability assessment following cessation of the psychedelic experience. […]
as §3
Measures assessing patients' anxiety and wellbeing, areas which are often negatively impacted by depression, were also analysed across the study. […]

[11] = test system: patients with major depressive disorder; assay: Beck Depression Inventory (BDI), NCT04673383 Part B; assay type: in vivo, human
Experimental: as §1, §2, §3
Analysis of patient-reported depression scores corroborated the MADRS assessments conducted by independent clinical raters. Improvements in depression scores from baseline were observed across all study timepoints in patients receiving at least one dose of active, as measured by the Beck Depression Inventory (“BDI”). […]

[12] = test system: patients with major depressive disorder; assay: Challenging Experience Questionnaire (CEQ), NCT04673383 Part B; assay type: in vivo, human
From the text: Garcia-Romeu and Richards (International review of Psychiatry, Vol. 30, 2018, issue 4, pp 291-316) discuss the use of serotonergic hallucinogens in clinical interventions and state ‘issues, such as recent suicidality, drug or alcohol use disorders, dissociative disorders, and past history of trauma should be taken into account depending on the therapeutic target, as these may be exacerbated by high-dose psychedelic administration or increase risk for adverse events. ‘They further state: Psychodynamic-autobiographical experiences are predominated by emotional recollections and reflections on significant previous or current life events and relationships. […] A patient's subjective experience may be evaluated by the Challenging Experience Questionnaire (CEQ), a questionnaire designed to measure challenging psychological experiences associated with a psychedelic experience.
as §3

healthy volunteers = conditions: single oral dose, interim analysis; cited from earlier work
[13] = Group PA, open label phase, Day 105
[14] = Group PA, 2 weeks, study Day 29
[15] = day 8, blinded data for all patients (average of placebo and DMT fumarate patients)

SMILES: CN(C)CCc1c[nH]c2ccccc12 [DMT, 2-(1H-indol-3-yl)-N,N-dimethylethanamine]
- perceived duration of the psychedelic experience (healthy participants): approximately 25 minutes
- tolerability score (0-100, 0=intolerable, 100=well tolerated) [1]: greater than 70
- improvement on the MADRS scale approximated from HAMD-17 change [2]: ~−3.9
- mean change in HAMD-17 scores [3]: −4.5
- mean score to 'how likely are you to use this drug?' (scale 0 to 100) [4]: 22.44

SMILES: CN(C)CCc1c[nH]c2ccccc12.O=C(O)/C=C/C(=O)O [DMT fumarate, N,N-dimethyltryptamine fumarate]
- Wellbeing (WEMWBS CFB) ([5]; Active, blinded phase, Day 15 (two-weeks following blinded dose)): 10.1
- Wellbeing (WEMWBS CFB) [5, 13]: 9.8
- answer to 'Do you wish you had not gone through that experience?' (tolerability) (healthy adults [6]): no
- difference in mean change from baseline (MADRS) between Group A and Group P ([7]; Day 8, active vs placebo, p=0.002): −10.8 points
- difference in mean change from baseline (MADRS) between Group A and Group P ([7]; Day 15, active vs placebo, p=0.02): −7.4 points
- Mean change from baseline (MADRS) ([7]; Group A, 1 week from active dose, study Day 8): −12.7
- % of subjects with a MADRS score ≤ 10 ([7]; Group A, 1 week, study Day 8): 43.8%
- % of subjects with ≥ 50% reduction from BL (MADRS) ([7]; Group A, 1 week, study Day 8): 43.8%
- Mean % reduction (MADRS) ([7]; Group A, 1 week, study Day 8): −48.2%
- Mean change from baseline (MADRS) ([7]; Group A, 2 weeks from active dose, study Day 15): −11.0
- % of subjects with a MADRS score ≤ 10 ([7]; Group A, 2 weeks, study Day 15): 29.4%
- % of subjects with ≥ 50% reduction from BL (MADRS) ([7]; Group A, 2 weeks, study Day 15): 35.3%
- Mean % reduction (MADRS) ([7]; Group A, 2 weeks, study Day 15): −41.0%
- Mean change from baseline (MADRS) ([7]; Group PA (open label active after placebo), 1 week from active dose, study Day 22): −10.6
- % of subjects with a MADRS score ≤ 10 ([7]; Group PA, 1 week, study Day 22): 42.9%
- % of subjects with ≥ 50% reduction from BL (MADRS) ([7]; Group PA, 1 week, study Day 22): 42.9%
- Mean % reduction (MADRS) ([7]; Group PA, 1 week, study Day 22): −40.6%
- Mean change from baseline (MADRS) ([7]; Group PA, 2 weeks from active dose, study Day 29): −10.8
- % of subjects with a MADRS score ≤ 10 [7, 14]: 31.3%
- % of subjects with ≥ 50% reduction from BL (MADRS) [7, 14]: 43.8%
- Mean % reduction (MADRS) [7, 14]: −36.7%
- difference in mean total MADRS score, statistical analysis ([7]; Group PA, all open-label study timepoints, p<0.05): statistically significant difference
- average improvement on the MADRS score [7, 15]: −7.5
- average percent reduction from baseline (MADRS) [7, 15]: −18.4%
- drug related serious adverse events [8]: no drug related serious adverse events
- mean CEQ score (healthy adults [9]): 0.172
- Anxiety (STAI-T CFB) ([10]; Active, blinded phase, Day 15, p = 0.03 active vs. placebo): −11.0
- Anxiety (STAI-T CFB) ([10]; Group PA, open label phase, Day 105 (12-weeks following the open label dose)): −14.2
- Self-Reported Depression (BDI CFB) ([11]; Active, blinded phase, Day 15, p = 0.002 active vs. placebo): −17.4
- Self-Reported Depression (BDI CFB) [11, 13]: −19.7
- mean CEQ score ([12]; Group A): 0.360
- mean CEQ score ([12]; Group PA): 0.350

SMILES: [2H]C([2H])([2H])N(C([2H])([2H])[2H])C([2H])([2H])C([2H])([2H])c1c[nH]c2cccc(O)c12 [CYB003]
- average duration of peak effects (healthy volunteers): ≈ 2 hours
- time to psychedelic effects (healthy volunteers): ≤ 15 min
